Reference: patent publication US20100179225A1, “POI Prevention” (CYTOKINE PHARMASCIENCES, INC., priority 2008, published 2010)

How the values were obtained:
[1] = test system: p38-MAPK; experiment: p38-MAPK activation in CSF-1 mutant op−/− mice (Pathscan-Phospho-p38α-ELISA); format: in vivo; conditions: 5 mg/kg i.v. preoperative, 20 minutes after IM, mean±SEM
Excerpt: Male C57BL/6J mice ([…] bodyweight) were obtained from Harlan-Winkelmann (Borchen, Germany). CSF-1 mutant op−/− mice (strain B6C3Fe a/a-Csf1op) and populations of unknown heterozygous or wildtype genotype (op+/?) of mixed gender were used at an age of 6 weeks and bred as described before (Wehner S, Behrendt F F, Lyutenski B N et al. Inhibition of macrophage function prevents intestinal inflammation and postoperative ileus in rodents. Gut 2007; 56:176-185). op−/− mice were phenotyped by the absence of incisors at day P10. All experiments were performed in accordance with the federal law regarding the protection of animals. The principles of laboratory animal care were followed. Animals were maintained on a 12-hour light/dark cycle and provided with commercially available rodent chow and tap water ad libitum.
p38-MAPK phosphorylation was evaluated in unoperated homozygous colony stimulating factor-1 mutant mice (op−/−) mice, or in op−/− and op+/? mice (a mixed population of unknown heterozygous +/− or homozygous +/+ wildtype mice) 20 minutes after IM. […] Additionally, CNI-1493 (5 mg/kg) pretreated op−/− mice were analyzed. In this experiment, p38-MAPK phosphorylation was quantified by the Pathscan-Phospho-p38α-ELISA following manufacturer's instructions. Phospho-p38 content of each probe was determined in duplicate from lysates with 6.25 μg total protein content.

[2] = test system: Lewis rats; experiment: Intestinal injury (Park score) after syngeneic orthotopic small intestinal transplantation; format: in vivo; conditions: 1 mg/kg i.v. to donor and recipient
Description: (§1) Syngeneic orthotopic small intestinal transplantation was performed in Lewis rats as previously described (Schwarz N T, Nakao A, Nalesnik M A, Kalff J C, Murase N, Bauer A J. Protective effects of ex vivo graft radiation and tacrolimus on syngeneic transplanted rat small bowel motility. Surgery 2002; 131: 413-423). […] Then the graft vascular bed was perfused with chilled UW solution (University of Wisconcin) and the intestinal lumen was irrigated with 50 ml cold 0.9% NaCl solution containing […]. neomycin sulfate (Uro Nebacetin N, Nycomed, Germany). The graft was stored in cold UW solution during the preparation of the recipient. An end-to-side anastomosis between the graft aorta and the recipient infra-renal aorta, and between the graft vein and recipient vena cava, was performed. Approximately 80% of the recipient intestine was removed and enteric continuity was restored by proximal and distal end-to-end intestinal anastomoses. […]
Histological changes and intestinal injury were graded by determination of the Park score 3 and 18 hours after reperfusion. […] Probes were analyzed in a blinded way.
Syngeneic orthotopic small intestinal transplantation was performed as described above and histological changes and intestinal injury were graded by determination of the Park score 3 and 18 hours after reperfusion. […] Probes were analyzed in a blinded way.

[3] = test system: apoptotic cells in graft muscularis; experiment: Apoptosis within smooth muscle layer of grafts (TUNEL); format: in vivo, Lewis rats; conditions: 1 mg/kg
Description: as §1
Apoptotic cells within the smooth muscle layer of the grafts were detected 3 and 18 h after reperfusion by detection of DNA double strand breaks with a commercially available TUNEL kit (Roche, Mannheim, Germany) according to the manufactures instructions.

[4] = test system: circular smooth muscle of the graft; experiment: Mechanical in vitro activity of mid-jejunum graft circular smooth muscle (bethanechol); format: in vivo, Lewis rats; conditions: 1 mg/kg i.v. 90 min before; 18 h reperfusion; 100 μmol/L bethanechol
Description: as §1, with “recipient.” for “recipient. An end-to-side anastomosis between the graft aorta and the recipient infra-renal aorta, and between the graft vein and recipient vena cava, was performed. Approximately 80% of the recipient intestine was removed and enteric continuity was restored by proximal and distal end-to-end intestinal anastomoses.”
Mechanical in vitro activity of the mid-jejunum was evaluated at 18 hours after reperfusion using smooth muscle strips of the circular muscularis as described previously (N=8 each) (Kalff J C, Schraut W H, Simmons R L, Bauer A J. Surgical manipulation of the gut elicits an intestinal muscularis inflammatory response resulting in postsurgical ileus. Ann Surg 1998; 228: 652-663). […] The contractile response was analyzed with the ADI Chart© software and the contractions were calculated as grams per square millimeter per second by conversion of the weight and length of the strip to square millimeters of tissue.

[5] = test system: nitric oxide (NO) production in ME; experiment: Nitric oxide release from rat ME cultures (Griess reaction) after IM; format: in vivo; conditions: rats
Description: Animals underwent IM after intravenous CNI-1493 (5 mg/kg) or oral CPSI-2364 (1 mg/kg or 0.1 mg/kg) administration 90 minutes before surgery. Control animals received CNI-1493 (5 mg/kg) intravenously or CPSI-2364 orally (1 mg/kg or 0.1 mg/kg), but were not operated.
Total ME from small intestine was isolated 24 h after operation as described above and then cut into small pieces and washed for 30 minutes in PBS containing a penicillin/streptomycin (200U/200 μg) mixture. Aliquots of ˜50 mg were incubated in 1 mL of DMEM at 37° C. and 5% CO2 for further 24 hours and tissue culture supernatants were frozen in liquid nitrogen. The muscle tissue was blotted dry, and the exact weight was measured. To quantify the generation of NO from intestinal smooth muscle preparations, nitrite production was measured by the Griess reaction as described previously (Kalff J C, Schraut W H, Billiar T R et al. Role of inducible nitric oxide synthase in postoperative intestinal smooth muscle dysfunction in rodents. Gastroenterology 2000; 118:316-327). In brief, supernatant from the tissue culture was mixed with an equal volume of Griess reagent (0.1% N-(1-napthyl)ethyl-enediamine dihydrochloride and 1% sulfanilamide in 6% phosphoric acid; 1:1) and incubated for 10 minutes. The absorbance at 550 nm was measured with a microplate reader and compared with standard dilutions of sodium nitrite. […]

## C/C(=N\N=C(N)N)c1cc(NC(=O)CCCCCCCCC(=O)Nc2cc(/C(C)=N/N=C(N)N)cc(/C(C)=N/N=C(N)N)c2)cc(/C(C)=N/N=C(N)N)c1.Cl.Cl.Cl.Cl [CNI-1493]
[1]
  p38-MAPK phosphorylation levels (phospho-p38 ELISA): 3.24±0.66

## C/C(=N\N=C(N)N)c1cc(NC(=O)CCCCCCCCC(=O)Nc2cc(/C(C)=N/N=C(N)N)cc(/C(C)=N/N=C(N)N)c2)cc(/C(C)=N/N=C(N)N)c1.CS(=O)(=O)O.CS(=O)(=O)O.CS(=O)(=O)O.CS(=O)(=O)O [CPSI-2364]
[2]; 3 hours after reperfusion
  Park's score: 1.83
[2]; 18 hours after reperfusion
  Park's score: 1.5
[3]; 3 h after reperfusion
  number of apoptotic bodies in muscularis: 21.0
[3]; 18 h after reperfusion
  number of apoptotic bodies in muscularis: 7.2
[4]
  circular smooth muscle contractile force: 3.63 grams/mm2/sec
  increase in circular smooth muscle contractile activity in comparison to the vehicle grafts: 96%
[5]; 0.1 mg/kg bodyweight p.o.
  NO production from ME vs placebo IM: led to the described results
[5]; p.o. preoperative (FIG. 12)
  NO production from ME vs placebo IM: significantly diminished
